The source of these data is patent US5760059A, “Indole derivatives” (Glaxo Wellcome SpA, priority 1993, dated 1998).

Series [1] has as its target T1, strychnine insensitive glycine binding site (NMDA receptor complex) (Rattus norvegicus, UniProt P35439).
T1 construct: from tissue
As to the kind of experiment: affinity for strychnine insensitive glycine binding site.

For series [2], the system named is NMDA induced convulsions in mice. Put plainly: inhibition of NMDA induced convulsions in mice. The series is classed as in vivo. Particulars: Mus musculus, dose to protect 50 % of the animals from NMDA (intracerebroventricular) convulsions. The text has this: In this test the ability of the compound to inhibit the generalized seizures induced by an intracerebroventricular injection of NMDA in mice was examined at a number of dose levels. […] This expressed as mg/kg is referred to as the ED50 value.

In another series the test system is conscious dogs. As to the kind of experiment: adverse effects in conscious dogs. Particulars: doses up to 24 mg/kg. The series is classed as in vivo, dog. The source says:
(§1) The compounds of the invention are essentially non toxic at therapeutically useful doses.

For the next series, the system named is anaesthetised cats. As to the kind of experiment: adverse effects in anaesthetised cats. The series is classed as in vivo, cat. Particulars: doses up to 24 mg/kg.
Excerpt: as §1

Where [3] appears, read: strychnine insensitive glycine binding site, read-out: pKi (converted).
The mark [4] stands for this setting: intravenous, read-out: ED50 i.v.

Counter-ions that a name gives are not always drawn. Like-named read-outs stand apart in the source and are kept apart here.

For the compound `O=C(O)c1[nH]c2cc(Cl)cc(Cl)c2c1/C=C1/NC(=O)N(c2ccccc2)C1=O` [Example 14, (E) 4,6Dichloro-3-(2.5-dioxo-1-phenyl-imidazolidin-4-ylidenemethyl)-1H-indole-2-carboxylic acid], the Ki in series [1] (setting [3]) was 74.1 nM.

Consider `CN1C/C(=C\c2c(C(=O)O)[nH]c3cc(Cl)cc(Cl)c23)C(=O)N1c1ccccc1` [Example 23, (E) 3[(2-methyl-5-oxo-1-phenyl)pyrazolidin-4-ylidenemethyl]-4,6-dichloro-1H-indole-2-carboxylic acid], for which the Ki in series [1] (setting [3]) was 34.7 nM.

For the compound `O=C(O)c1[nH]c2cc(Cl)cc(Cl)c2c1/C=C1\NC(=O)N(c2ccccc2)C1=O` [Example 12, (Z) 4,6-Dichloro-3-(2,5dioxo-1-phenyl-imidazolidin-4-ylidenemethyl)-l H-indole-2-carboxylic acid], the Ki in series [1] (setting [3]) was 37.2 nM.

As to `O=C(O)c1[nH]c2cc(Cl)cc(Cl)c2c1/C=C1\CNN(c2cccc3ccccc23)C1=O` [Example 34, (E) 4,6-dichloro-3(5-oxo-1(1-naphthyl)-pyrazolidin-4-ylidenemethyl)-1H-indole-2-carboxylic acid], the Ki in series [1] (setting [3]) was 49 nM.

As to `O=C(O)c1[nH]c2cc(Cl)cc(Cl)c2c1C=C1CON(c2ccccc2)C1=O` [Example 26, 4,6-Dichloro-3-(3-oxo-2-phenyl-isoxazolidin-4-ylidenemethyl)-1H-indole-2-carboxylic acid], in series [1] (setting [3]), the Ki was 75.9 nM.

Consider `NC(=O)Nc1ccc(N2NCC(=Cc3c(C(=O)O)[nH]c4cc(Cl)cc(Cl)c34)C2=O)cc1` [Example 20, 4,6-Dichloro-3-[5-oxo-1-(4-ureido-phenyl)-pyrazolidin-4-ylidenemethyl]-1H-indole-2-carboxylic acid], for which, in series [1] (setting [3]), the Ki was 20.4 nM.

Consider `Nc1cccc(N2NC/C(=C\c3c(C(=O)O)[nH]c4cc(Cl)cc(Cl)c34)C2=O)c1` [Example 27, (E) 4,6dichloro-3[(5-oxo-1-(3-aminophenyl))pyrazolidin-4-ylidenemethyl]-1H-indole-2-carboxylic acid hydrochloride salt], for which, in series [1] (setting [3]), the Ki is 20 nM.

On to `O=C(O)c1[nH]c2cc(Cl)cc(Cl)c2c1/C=C1\CNN(c2ccccc2)C1=O` [Example 8, (E) 4,6-dichloro-3-(5oxy-1-phenyl-pyrazolidin-4ylidenemethyl)-1H-indole-2-carboxylic acid sodium salt], for which the ED50 in series [2] (setting [4]) came to 0.1 mg/kg; in series [2] (oral, read-out: ED50 po) it was 1.7 mg/kg. Moreover, in series [1] (setting [3]), the Ki was 10 nM. Moreover, the “adverse affects when administered” value in the series on conscious dogs and with anaesthetised cats was “no adverse affects” in each case.

With `Nc1ccc(N2NC/C(=C\c3c(C(=O)O)[nH]c4cc(Cl)cc(Cl)c34)C2=O)cc1` [Example 10, (E) 4,6dichloro-3-[(5-oxo-1-(4-aminophenyl))pyrazolidin-4-ylidenemethyl]-1H-indole-2-carboxylic acid hydrochloride salt], the ED50 is 0.1 mg/kg in series [2] (setting [4]) and 1.7 mg/kg in series [2] (oral, read-out: ED50 po). Also, the Ki in series [1] (setting [3]) was 14.8 nM.

With `O=C(O)c1[nH]c2cc(Cl)cc(Cl)c2c1/C=C1\CC(=O)N(c2ccccc2)C1=O` [Example 28, (E) 4,6dichloro-3-(2.5-dioxo-1-phenyl-pyrrolidin-3-ylidenemethyl)-1H-indole-2-carboxylic acid], the Ki in series [1] (setting [3]) is 41.7 nM.

Take `O=C(O)c1[nH]c2cc(Cl)cc(Cl)c2c1/C=C1\CCCN(c2ccccc2)C1=O` [Example 6, (E)4,6-dichloro-3-(2-oxo-1-phenyI-piperidin-3-ylidenemethyl)-1H-indole-2-carboxylic acid sodium salt]: the ED50 in series [2] (setting [4]) was determined as 0.09 mg/kg; in series [2] (oral, read-out: ED50 po) it was 7.5 mg/kg. Further, the Ki in series [1] (setting [3]) was 49 nM.

For the compound `O=C([O-])c1[nH]c2cc(Cl)cc(Cl)c2c1/C=C1\CCN(c2ccccc2)C1=O.[Na+]` [Example 3, (E)4,6-dichloro-3-(2oxo-1-phenyl-pyrrolidin-3-ylidenemethyl) -1H-indole-2-carboxylic acid sodium salt], the ED50 in series [2] (setting [4]) was found to be 0.08 mg/kg; in series [2] (oral, read-out: ED50 po), 3.83 mg/kg. This compound gave a Ki in series [1] of 51.3 nM.

Regarding `CS(=O)(=O)Nc1ccc(N2NCC(=Cc3c(C(=O)O)[nH]c4cc(Cl)cc(Cl)c34)C2=O)cc1` [Example 22, 4,6Dichloro-3-[1-(4-methylsulfamidophenyl)-5-oxo-pyrazolidin4-ylidenemrthyl]-1H-indole-2-carboxylic acid], the Ki in series [1] (setting [3]) is 21.9 nM.

Take `CC(=O)Nc1ccc(N2NCC(=Cc3c(C(=O)O)[nH]c4cc(Cl)cc(Cl)c34)C2=O)cc1` [Example 18, 4.6-Dichloro-3-[5-oxo1-(4-acetylamino-phenyl)-pyrazolidin-4-ylidenemethyl]-1H-indole-2-carboxylic acid]: in series [1] (setting [3]), the Ki was 20 nM.

As a reminder, the ED50 is the dose that gives a 50% effect, or the effect in half of the subjects.
